Results taken from patent publication US20080286282A1, “Novel Use of Sulfonamide Compound in Combination with Angiogenesis Inhibitor” (Eisai R & D Management Co., Ltd., priority 2005, published 2008).
Like-named read-outs stand apart in the source and are kept apart here.

How the values were obtained:
HCT116-C9 = test: Cell growth inhibition assay (MTT, 72 h) on HCT116-C9; assay type: cell-based; details: Homo sapiens
Protocol: (§1) An E7070-resistant cell line was used to assess the antiproliferative activities of E7820, LY186641, LY295501, LY-ASAP and CQS. HCT116-C9 was a substrain separated from human colon cancer-derived HCT116 (American Type Culture Collection, Manassas, Va., U.S.A.). This HCT116-C9 was cultured in the presence of E7070 while increasing the E7070 concentration by degrees, thereby obtaining E7070-resistant substrains HCT116-C9-C1 and HCT116-C9-C4 (Molecular Cancer Therapeutics, 2002, 1, 275-286).
(§2) Three cell lines, i.e., HCT116-C9, HCT116-C9-C1 and HCT116-C9-C4, were each seeded at 3000 cells/well onto a 96-well microplate (flat bottom) (50 μl/well). Twenty-four hours later, they were added with a 3-fold dilution series of each compound (50 μl/well). Seventy-two hours later, the antiproliferative activities were assessed by MTT method (Mossmann T., J. Immunol. Methods, 1983, 65, 55-63). The 50% growth inhibitory concentrations to the cancer cells were obtained by a least square method.
(§3) In exactly the same manner as in Example 6, an E7070-resistant cell line was used to assess the antiproliferative activities of LY573636 as well as those of E7070.

HCT116-C9-C1 = test: Cell growth inhibition assay (MTT, 72 h) on E7070-resistant HCT116-C9-C1; assay type: cell-based; details: Homo sapiens
Protocol: as §1, §2, §3

HCT116-C9-C4 = test: Cell growth inhibition assay (MTT, 72 h) on E7070-resistant HCT116-C9-C4; assay type: cell-based; details: Homo sapiens
Protocol: as §1, §2, §3

[1] = tested on: human colon cancer cell line (Colo320DM); test: Subcutaneous transplant model of human colon cancer cell line Colo320DM, E7070 and Bevacizumab (Example 8); assay type: in vivo; details: Colo320DM s.c. in nude mouse, E7070 40 mg/kg i.v. Days 1 to 5, Bevacizumab 25 mg/kg i.v. Days 1, 5, 8 and 12; for Relative Tumor Volume (RTV) Average ± standard deviation: Day 23
Protocol: (§4) Human colon cancer cell line Colo320DM (purchased from ATCC) was cultured in RPMI1640 (containing 10% FBS) in a 5% carbon dioxide incubator to about 80% confluence, and the cells were collected with trypsin-EDTA. Using Hanks balanced solution, 5×10^7 cells/mL suspension was prepared, and 0.1 mL each of the resulting cell suspension was subcutaneously transplanted to a nude mouse at the side of its body.
Following transplantation, E7070 (40 mg/kg/day) and Bevacizumab (25 mg/kg/day) were administered alone or in combination when the average tumor volume became 259 mm^3.
E7070 alone was intravenously administered once a day for 5 days (on Days 1 to 5). On the other hand, Bevacizumab alone was intravenously administered twice a week for 2 weeks (on Days 1, 5, 8 and 12).
For the combinational use group, E7070 was intravenously administered on Days 1 to 5 while Bevacizumab was intravenously administered on Days 1, 5, 8 and 12.
The major and minor axes of tumors were measured twice a week from the initiation of administration with Digimatic caliper (Mitsutoyo), and tumor volumes were calculated according to the following formula.
(§5) Tumor Volume TV=Major axis of tumor (mm)×(Minor axis of tumor)^2 (mm^2)/2
The following two values were used for judging an anti-tumor effect.
Tx4: time (days) required for the tumor to grow to four times the initial tumor volume
RTV: Relative tumor volume (RTV)* on Day 23
*RTV=Tumor volume on Day 23/Initial tumor volume on Day 1

[2] = tested on: human colon cancer cell line (Colo320DM); test: Subcutaneous transplant model of human colon cancer cell line Colo320DM, E7820 and Bevacizumab (Example 2); assay type: in vivo; details: Colo320DM s.c. in nude mouse; E7820 200 mg/kg twice a day orally 3 weeks; Bevacizumab 25 mg/kg twice a week i.v. 3 weeks
Protocol: Human colon cancer cell line Colo320DM (purchased from Dainippon Pharmaceutical) was cultured in RPMI1640 (containing 10% FBS) in a 5% carbon dioxide incubator at 37° C. to about 80% confluence, and the cells were collected with trypsin-EDTA. Using a phosphate buffer containing 50% matrigel, 5×10^7 cells/mL suspension was prepared, and 0.1 mL each of the resulting cell suspension was subcutaneously transplanted to a nude mouse at the side of its body. Seven days after the transplantation, administration of E7820 (200 mg/kg, twice a day, for 3 weeks, orally administered) and administration of Bevacizumab (25 mg/kg, twice a week, for 3 weeks, intravenously administered) were initiated. The major and minor axes of tumors were measured with Digimatic caliper (Mitsutoyo), and tumor volumes and relative tumor volumes were calculated according to the following formulae.
as §5
(§6) Relative Tumor Volume RTV=Tumor volume on measurement day/Tumor volume on the first administration day

[3] = tested on: human renal cancer cell line (786-O); test: Subcutaneous transplant model of human renal cancer cell line 786-O, E7820 and Bevacizumab (Example 9); assay type: in vivo; details: 786-O s.c. in nude mouse; E7820 200 mg/kg twice a day orally 2 weeks; Bevacizumab 25 mg/kg twice a week i.v. 2 weeks
Protocol: as §4, with “renal” for “colon”, “786-0 (obtained” for “Colo320DM (purchased”, “incubator at 37° C.” for “incubator”, “a phosphate buffer containing 50% matrigel, 1×10^8” for “Hanks balanced solution, 5×10^7”
Seven days after the transplantation, E7820 and Bevacizumab were administered alone or in combination. E7820 was orally administered at 200 mg/kg twice a day for 2 weeks while Bevacizumab was intravenously administered at 25 mg/kg twice a week for 2 weeks.
The major and minor axes of tumors were measured with Digimatic caliper (Mitsutoyo), and tumor volumes and relative tumor volumes were calculated according to the following formulae.
as §5, §6

[4] = Example 6, read-out: antiproliferative activity, IC50
[5] = Example 7, read-out: antiproliferative activity, IC50

Compound | IC50 (HCT116-C9; [4]) | IC50 (HCT116-C9-C1; [4]) | IC50 (HCT116-C9-C4; [4]) | IC50 (HCT116-C9-C1; [5]) | IC50 (HCT116-C9-C4; [5]) | IC50 (HCT116-C9; [5]) | Tx4 Average ± standard deviation (time required for the tumor to grow to four times the initial tumor volume) [1] | Relative Tumor Volume (RTV) Average ± standard deviation [1] | Relative tumor volume on Day 22 Average ± standard deviation [2] | Relative tumor volume on Day 22 Average ± standard deviation [3]
NS(=O)(=O)c1ccc(S(=O)(=O)Nc2cccc3c(Cl)c[nH]c23)cc1 [E7070, N-(3-chloro-1H-indole-7-yl)-4-sulfamoylbenzenesulfonamide] | 0.127 µM | 31.9 µM | 26.9 µM | 32.7 µM | 28 µM | – | 27.0 ± 3.4 days | 2.70 ± 0.97 | – | –
Cc1ccc(NS(=O)(=O)c2cccc(C#N)c2)c2[nH]cc(C#N)c12 [E7820, N-(3-cyano-4-methyl-1H-indole-7-yl)-3-cyanobenzenesulfonamide] | 0.08 µM | 51.2 µM | 52.8 µM | – | – | – | – | – | 6.1 ± 1.8 | 0.6 ± 0.1
O=C(NS(=O)(=O)c1ccc(Cl)cc1)c1ccc(Cl)cc1Cl [LY-ASAP, N-(2,4-dichlorobenzoyl)-4-chlorophenylsulfonamide] | 1.63 µM | 113 µM | 90.3 µM | – | – | – | – | – | – | –
Bevacizumab: human anti-VEGF (Vascular Endothelial Growth Factor) monoclonal antibody, obtained by purchasing Avastin from Genentech | – | – | – | – | – | – | 26.3 ± 2.8 days | 2.84 ± 0.68 | 5.1 ± 0.8 | 1.8 ± 0.2
Nc1ccc(S(=O)(=O)Nc2cnc3c(Cl)cccc3n2)cc1 [CQS, 2-sulfanylamide-5-chloroquinoxaline] | 1.73 µM | 634 µM | 517 µM | – | – | – | – | – | – | –

Second part, led by results:

IC50 (HCT116-C9; [4]) | IC50 (HCT116-C9-C1; [4]) | IC50 (HCT116-C9-C4; [4]) | IC50 (HCT116-C9-C1; [5]) | IC50 (HCT116-C9-C4; [5]) | IC50 (HCT116-C9; [5]) | Compound | Tx4 Average ± standard deviation (time required for the tumor to grow to four times the initial tumor volume) [1] | Relative Tumor Volume (RTV) Average ± standard deviation [1] | Relative tumor volume on Day 22 Average ± standard deviation [2] | Relative tumor volume on Day 22 Average ± standard deviation [3]
10.9 µM | 111 µM | 110 µM | – | – | – | O=C(Nc1ccc(Cl)c(Cl)c1)NS(=O)(=O)c1ccc2c(c1)CCO2 [LY295501, N-[[(3,4-dichlorophenyl)amino]carbonyl]-2,3-dihydrobenzofuran-5-sulfonamide] | – | – | – | –
33.6 µM | 134 µM | 138 µM | – | – | – | O=C(Nc1ccc(Cl)cc1)NS(=O)(=O)c1ccc2c(c1)CCC2 [LY186641, N-[[(4-chlorophenyl)amino]carbonyl]-2,3-dihydro-1H-indene-5-sulfonamide] | – | – | – | –
– | – | – | 264 µM | 240 µM | 5.11 µM | O=C(NS(=O)(=O)c1ccc(Br)s1)c1ccc(Cl)cc1Cl [LY573636, N-(2,4-dichlorobenzoyl)-5-bromothiophene-2-sulfonamide] | – | – | – | –
